# Test results taken from a melting point compilation (Tetko et al.; mined from patent text by program, amines drawn as free bases though some values may be those of a salt).
row,SMILES,melting point [°C]
1,Clc1ccc2nc(Cl)c(I)n2c1,234 to 235
2,O=c1[nH]c2ccccc2n1CCCN1CCN(c2n[nH]c3cc(F)ccc23)CC1,236 to 238
3,COc1cc(C=O)nnc1OC,179 to 181
4,CC(=O)n1cc(Cl)c(-c2cccc(C(F)(F)F)c2)c1,70 to 71.5
5,Cc1cccc(C)c1NC(=O)CS(C)=O (stereo unspecified),112 to 114
6,CCOC(=O)CS(=O)(=O)CCC=C1SC=CS1,103 to 104
7,C#CCn1c(-c2ccccc2)nc(CC)c(CC(N)=O)c1=O,196 to 198
8,CS(=O)(=O)c1ccc(C(CC2CCCC2)C(=O)Nc2nccs2)cc1[N+](=O)[O-] (stereo unspecified),121 to 124
9,CCc1cc(-c2cc(N)n3nc(-c4ccco4)nc3c2)ccn1,184 to 186
10,CCOCc1nc2c(N)nc3cc(-c4ccc(F)nc4)cnc3c2n1CC(C)(C)F,198 to 199
11,CC1CC2C(=CCC3(C)C2CCC3(O)C(=O)CO)C2(C)C=CC(=O)C=C12 (stereo unspecified),204 to 206
12,CCC=CCC=CCC=CCCCCCCCC(=O)OCC(COC(=O)CCCCCCCC=CCC=CCC=CCC)OCn1cnc2c(=O)[nH]c(N)nc21 (stereo unspecified),242 to 243
13,COC[C@@H](NC(C)=O)C(=O)NCc1ccc(I)cc1,159 to 160
14,Cn1c(C(F)(F)F)cc(=O)n(-c2ccc3snc(C4OCC(O)(CBr)CO4)c3c2)c1=O (stereo unspecified),105 to 110
15,Cc1ccccc1C1c2cc(NC(=O)CC(C)(C)C)c(C)c(C)c2OC1(C)C (stereo unspecified),161 to 162
16,COc1ccc(C(=O)SC[C@@H](C)C(=O)N2CCC[C@H]2C(=O)O)cc1,140 to 141
17,C[C@@H](N)CN(c1ccccn1)S(=O)(=O)O,176 to 179
18,O=Cc1cccn1C(=O)c1ccccc1[N+](=O)[O-],95 to 99
19,CCOc1ccc(OC)c2c1CCC=C2,59 to 60
20,COc1ccc(N2CCC(=O)C2)cc1,104 to 105

row,SMILES,melting point [°C]
1,O=C(O)c1ccc(N2CCN(c3ccncc3)CC2)cc1,> 300
2,COC(=O)[C@H](Cc1ccc(N)cc1)NC(C)=O,141
3,CN1CCN(c2c(F)c(NCc3ccccc3)c3nc(CC(N)=O)n(C4CC4)c3c2F)CC1,157 to 159
4,COc1cccc2c(=O)c3c(OCC4CS4)cc(OCC4CS4)cc3oc12 (stereo unspecified),240
5,CN(C)c1ccc(NC(=O)c2cc3cc(C(F)(F)F)ccc3n2Cc2cccc(F)c2)cn1,192 to 193
6,C[C@@H](Cn1ncc2ccc3c(c21)C[C@@H](OCC(N)=O)CO3)N=[N+]=[N-],94 to 97
7,COc1cc(OC)nc(NCC2COC3(CCC(C(C)(C)C)CC3)O2)n1 (stereo unspecified),76 to 106
8,CC(C)Nc1nc(Cl)nc(Cl)c1[N+](=O)[O-],65
9,CCNC(=O)n1nc(Oc2c(F)cc(C(F)(F)F)cc2F)cc1C,102 to 104
10,O=C(NC1CCCCC1)NS(=O)(=O)c1ccc2c(c1)CCN(C(=O)N1CCCCCC1)CC2,155 to 156
11,CN1CCN(CCCNc2ccc(Cl)cc2N)CC1,88 to 90
12,O=C(O)c1ccc(S(F)(F)(F)(F)F)cc1[N+](=O)[O-],165 to 167
13,CN1C(=O)C(NC(=O)Nc2cccc(Br)c2)N=C(c2ccccc2)c2ccccc21 (stereo unspecified),194 to 196
14,CC1(C)CC(=O)OC(C(Cl)(Cl)Cl)C1Cl (stereo unspecified),83 to 84
15,CCS(=O)(=O)c1cc(OC)c(OC)c(C(=O)NCC2CCCN2CC2CC2)c1 (stereo unspecified),167 to 170
16,O=C(O)c1cc(F)c(O)nc1Nc1ccc(F)cc1,216 to 217
17,Cn1c(C(F)(F)F)cc(=O)n(-c2ccc3snc(-c4sccc4CO)c3c2)c1=O,168 to 169
18,Cc1cc(C)c2c(=O)n(CC(=O)N3CCOCC3)sc2n1,200 to 203
19,CCOCCOc1ccc(OCC(O)CNCCNC(=O)N2CCOCC2)c(Br)c1 (stereo unspecified),98
20,Cc1c(N)cccc1OC1CCN(C(=O)OC(C)(C)C)C1 (stereo unspecified),137

row,SMILES,melting point [°C]
1,O=Cc1cc2ccccc2n1-c1cccnc1,101 to 103
2,CC(C)(C)OC(=O)NCCNC(=O)c1cc([N+](=O)[O-])ccn1,130 to 131
3,O=C(O)c1sc(-c2cccnc2)nc1Cl,238 to 251
4,Nc1ccccc1Sc1ncc[nH]1,135 to 137
5,Nc1nccc(OCCc2ccccc2)c1[N+](=O)[O-],131 to 132
6,C#CCOc1cc(-n2c(=S)n3n(c2=S)COCC3)c(F)cc1Cl,167 to 169
7,CCCCCCCCCCCCCCOc1ccc(C(=O)Cc2ccc([N+](=O)[O-])cc2)cc1,84 to 85
8,NC(=O)N(O)[C@H]1CC[C@@H](Sc2ccccc2)C1 (relative stereo),146 to 148
9,COc1cc(CCl)ccc1OCc1coc(-c2ccco2)n1,123 to 124
10,CCCCCCCCCCCCCCCCCCSCC(CO)C(C)C (stereo unspecified),29
11,CCN1N=C(c2ccc(OC)c(OC)c2)[C@@H]2CCCC[C@@H]2C1=O (relative stereo),105 to 106
12,Cc1nc(N)c2nc(C)n(CCCCCS(C)(=O)=O)c2c1C,199 to 200
13,CC(C)N1C(=O)N=C(SCc2ccccc2)NS1(=O)=O,124 to 130
14,CNC(=C[N+](=O)[O-])NCCCCCCCCCCCCN,123 to 125
15,CC(C)(C)OC(=O)N1CCN(CCc2ccc(F)cc2)CC1,68 to 70
16,N#CC(c1ccccc1)N1CCN(C2CCCCC2)CC1 (stereo unspecified),79 to 81
17,CCNCC1CCN(c2nc3c(cc2F)c(=O)c(C(=O)O)cn3CC)C1 (stereo unspecified),230 to 232
18,C=CCNC(=O)Oc1cc(-n2c(=O)cc(C(F)(F)F)n(C)c2=O)c(F)cc1Cl,98 to 100

# Results, then the molecule that gave them:
row,melting point [°C],SMILES
1,177 to 178,CC(=O)Nc1ccc(OCC(=O)NC2CCN(Cc3ccc(Cl)c(Cl)c3)CC2)cc1
2,190 to 191,Cc1ccc(C(F)(F)c2ccc(C3CCCN4CCS(=O)(=O)N=C34)cc2)cc1 (stereo unspecified)
3,229 to 231,CCc1c(-c2ccc(OCc3ccccc3)cc2)c2c3c(c4c(OCc5ccccc5)ccc1n42)C(=O)OC3=O
4,183 to 185,COC(=O)Cc1cc(C(=O)c2ccc3cc(-c4ccccc4)[nH]c3c2)sc1-c1ccccc1
5,156 to 159,CN1CCC(=C2c3cc(C#N)ccc3C=Cn3cccc32)CC1
6,176 to 177,c1ccc2c(c1)Cn1c(cc3ccccc31)CN2
7,261,O=C(Oc1ccc(OC(=O)c2ccc(O)c(O)c2)c2ccccc12)c1ccc(O)c(O)c1
8,55 to 56,O=[N+]([O-])Cc1cccc(OCc2ccccc2)c1
9,248,O=C1Nc2ccc(Cl)cc2C1(Cl)c1cccc(F)c1F (stereo unspecified)
10,178 to 180,CS(=O)(=O)Nc1ccncc1-c1ccc2cnc(Nc3ccc(N4CCOCC4)cc3)nn12
11,198 to 199,CC12CCC3c4ccc(OCc5ccccc5)c([N+](=O)[O-])c4CCC3C1CCC2=O (stereo unspecified)
12,137 to 138,Cc1c(C)n(CC2CC2)c2c(OCc3ccc(F)cc3)nncc12
13,178 to 180,Cc1ccc(S(=O)(=O)OCC2Cc3cccc(-c4c(Cl)cccc4Cl)c3O2)cc1 (stereo unspecified)
14,142,O=C(NN1CCOCC1)C(CS)Cc1c(Cl)cccc1Cl (stereo unspecified)
15,141,COc1cc(OCC(=O)O)c(C)cc1SCc1ccc(-c2c(C)cc(C)cc2C)cc1
16,80 to 82,COc1ccc(O)c(CSc2ccccc2CO)c1
17,188,O=C(N[C@H]1CC[C@H](CCN2CCC(c3cccc4c3CCO4)CC2)CC1)c1ccc(Cl)cc1Cl
18,225 to 227,Cc1ccc(OCc2nc(N)c3nccnc3n2)cc1
19,83.1,CCNc1ccc2ccccc2c1-c1c(P(c2ccccc2)c2ccccc2)ccc2ccccc12
20,154,COCCNC(=O)c1ccc(NS(=O)(=O)c2ccc(F)cc2)cn1
21,179 to 180,COc1ccc(CN2C=CC=C3C2=Nc2cc(OC)ccc2S(=O)(=O)N3C)cc1
22,120 to 123,O=C(N[C@H]1CSc2ccc(C(F)(F)F)cc2NC1=O)OCc1ccccc1

row,melting point [°C],SMILES
1,121 to 122,CCN(C(=O)c1ccccc1-c1ccccc1)C(C)(C)c1ccccc1
2,81 to 82,COCCNC(=O)c1cccc(-c2cccc3cc(Cc4cccc(C(C)=O)c4)sc23)c1
3,71 to 72,COC1=C(OC)C(=O)C2=C(CCC(CCOc3ccccc3)CC2)C1=O
4,164 to 165,CCCCc1nc2ccc(C)c(C(=O)OCC)c2n1Cc1ccc(-c2ccccc2-c2nnn[nH]2)cc1
5,133 to 134,COc1ccc2nc(Cl)nc(N(C)c3ccccc3)c2c1
6,138 to 140,C=C(C)c1cccc2c(C(=O)O)cccc12
7,149 to 151,O=c1nc(-c2ccccc2)c2cc(Cl)sc2n1CC1CC1
8,162 to 164,O=C1N(CC2CCCO2)c2ccccc2C12COc1cc3c(cc12)OCC3 (stereo unspecified)
9,140 to 142,NS(=O)(=O)c1ccc(-n2nc(C(F)(F)F)cc2-c2ccc(-c3cscn3)c(C(F)(F)F)c2)cc1F
10,145 to 148,Cc1ccccc1C(=O)Nc1ccc(C(=O)N2Cc3ccccc3Sc3ccccc32)cc1
11,99,ClCc1c(-c2ccccc2)c(-c2ccccc2)nn1Cc1ccccc1
12,50 to 51,C/C(=C\CC1SC(=O)NC1=O)c1cccc(OCc2nc(-c3ccc(OC(F)(F)F)cc3)oc2C)c1 (stereo unspecified)
13,90,BrCC1(c2ccc3c(c2)Cc2ccccc2-3)OCCO1
14,117 to 120,CC(C)(c1ccccc1)n1nnc(-c2ccccc2-c2ccc(CO)cc2)n1
15,237 to 239,COC(=O)c1coc(-c2ccc(NS(=O)(=O)c3sc4ccc(Cl)cc4c3C)c(S(C)(=O)=O)c2)n1
16,240,CN1CS(=Nc2ccc3[nH]nnc3c2)c2ccccc21 (stereo unspecified)
17,155 to 160,COc1ccc(C(=O)Nc2ccc(C)c(C)c2)cc1NC(=S)Nc1cccc(C)c1
18,174 to 177,CCCc1nc(C(C)(O)CC)c(C(=O)O)n1Cc1ccc(-c2ccccc2-c2nnn[nH]2)cc1 (stereo unspecified)
19,45 to 46,CCOC(=O)C(C)(C)Oc1ccc(CNc2ccccc2)cc1
20,75 to 78,Cc1cccc(SCc2c(CCN(C)C)[nH]c3ccccc23)c1
21,147 to 149,Nc1ccc(CCc2ccc(Cl)c(Cl)c2)cc1O
